Experimental data reported in EPA's ToxRefDB 2.

How the values were obtained:
[1] = tested on: mouse; details: Carcinogenicity, b6c3f1, Oral, Gavage/Intubation, dose end: 91 week, group: systemic
[2] = tested on: rat; details: Carcinogenicity; other; Oral; Feed; dose end: 78 week; group: systemic; systemic / in life observation / clinical signs / abdominogenital staining + systemic / in life observation / clinical signs / fur (altered …
[3] = tested on: rat; details: Multigenerational reproductive toxicity study; sprague dawley; Oral; Water; dose end: 1 generation; group: reproductive; reproductive / offspring survival early / litter size / litter size + reproductive / offspring survival early / live fetuses / live fetuses
[4] = tested on: mouse; details: Carcinogenicity; b6c3f1; Oral; Feed; dose end: 104 week; group: systemic; systemic / pathology microscopic / spleen / hematopoietic cell proliferation + systemic / pathology microscopic / stomach / hyperkeratosis
[5] = tested on: dog; details: Chronic toxicity; beagle; Oral; Capsule; dose end: 104 PND; group: systemic; systemic / in life observation / clinical signs / [other]
[6] = tested on: rat; details: Combined chronic toxicity/carcinogenicity; wistar; Oral; Feed; dose end: 2 year; group: systemic; systemic / in life observation / clinical signs / aggressive behavior + systemic / in life observation / clinical signs / excitation + …
[7] = tested on: rat; details: Subchronic oral toxicity in rodents, sprague dawley, Gavage/Intubation, dose end: 90 day, group: systemic
[8] = tested on: rat; details: Carcinogenicity, fischer, Oral, Feed, dose end: 103 week, group: systemic
[9] = tested on: mouse; details: Carcinogenicity, b6c3f1, Oral, Feed, dose end: 103 week, group: systemic
[10] = tested on: mouse; details: Subchronic oral toxicity in rodents, b6c3f1, Feed, dose end: 13 week, group: systemic
[11] = tested on: rat; details: Subchronic oral toxicity in rodents, fischer, Feed, dose end: 13 week, group: systemic
[12] = systemic / pathology microscopic / adrenal gland / pheochromocytoma nos + systemic / pathology microscopic / liver / carcinoma + systemic / …
[13] = systemic / pathology microscopic / liver / carcinoma + systemic / in life observation / mortality / mortality + systemic / in life …
[14] = systemic / clinical chemistry / creatinine / creatinine + systemic / clinical chemistry / phosphorus / phosphorus + systemic / clinical …
[15] = systemic / in life observation / clinical signs / general pallor + systemic / in life observation / clinical signs / lethargy + systemic / …
[16] = systemic / in life observation / body weight / body weight
[17] = systemic / in life observation / body weight / body weight + systemic / in life observation / clinical signs / aggressive behavior + …
[18] = systemic / in life observation / body weight / body weight + systemic / in life observation / clinical signs / [other] + systemic / in life …
[19] = systemic / in life observation / clinical signs / ocular discharge + systemic / in life observation / clinical signs / aggressive behavior…
[20] = systemic / in life observation / food consumption / food consumption + systemic / organ weight / liver / absolute

In the case of `ClCC(Cl)Cl` [1,1,2-Trichloroethane], the LOAEL [1, 12] is reported as over 390 mg/kg/day, the NOAEL [1, 12] is reported as at least 390 mg/kg/day and the LEL [1, 13] is reported as 195 mg/kg/day. For the same compound, the NEL [1, 13] was under 195 mg/kg/day, the LEL [2] was 46 mg/kg/day and the LOAEL [2] was over 92 mg/kg/day. For the same compound, the NEL [2] was under 46 mg/kg/day and the NOAEL [2] was at least 92 mg/kg/day.

With `Oc1ccccc1Cl` [2-Chlorophenol] the LEL [3] was 25 mg/kg/day, the LOAEL [3] was over 25 mg/kg/day and the NEL [3] was 2.5 mg/kg/day. For the same compound, the NOAEL [3] was at least 25 mg/kg/day.

In the case of `Cc1ccc(N=CN(C)C=Nc2ccc(C)cc2C)c(C)c1` [Amitraz], the LEL [4] is reported as 2.31 mg/kg/day, the LOAEL [4] is reported as 2.31 mg/kg/day and the NEL [4] is reported as under 2.31 mg/kg/day. The NOAEL [4] was under 2.31 mg/kg/day, the LEL [5] was 1 mg/kg/day and the LOAEL [5] was 1 mg/kg/day. The NEL [5] was 0.25 mg/kg/day, the NOAEL [5] was 0.25 mg/kg/day and the LEL [6] was 3.13 mg/kg/day. It also gave an LOAEL [6] of 3.13 mg/kg/day, an NEL [6] of 0.97 mg/kg/day and an NOAEL [6] of 0.97 mg/kg/day.

`O=c1c(C2CC(c3ccc(-c4ccc(Br)cc4)cc3)Cc3ccccc32)c(O)sc2ccccc12` (centres undefined) [Difethialone] showed an LEL [7, 14] of 0.002 mg/kg/day, an NEL [7, 14] of under 0.002 mg/kg/day and an LOAEL [7, 15] of 0.008 mg/kg/day. For the same compound, the NOAEL [7, 15] was 0.004 mg/kg/day.

Compound `C[C@](N)(Cc1ccc(O)c(O)c1)C(=O)O.C[C@](N)(Cc1ccc(O)c(O)c1)C(=O)O.O.O.O` [Methyldopa sesquihydrate] has an LOAEL [8, 16] of 110 mg/kg/day, an NOAEL [8, 16] of under 110 mg/kg/day and an LEL [8, 17] of 110 mg/kg/day. For the same compound, the NEL [8, 17] was under 110 mg/kg/day, the LOAEL [9, 16] was 830 mg/kg/day and the NOAEL [9, 16] was under 830 mg/kg/day. For the same compound, the LEL [9, 18] was 830 mg/kg/day, the NEL [9, 18] was under 830 mg/kg/day and the LEL [10, 19] was 465 mg/kg/day. The NEL [10, 19] was under 465 mg/kg/day, the LOAEL ([10]; systemic / pathology microscopic / kidney / karyomegaly) was 1880 mg/kg/day and the NOAEL ([10]; systemic / pathology microscopic / kidney / karyomegaly + systemic / in life observation / body weight / body weight + systemic / in life …) was 945 mg/kg/day. It also gave an LEL [11, 20] of 155 mg/kg/day, an NEL [11, 20] of under 155 mg/kg/day and an LOAEL ([11]; systemic / pathology microscopic / kidney / regeneration + systemic / in life observation / body weight / body weight) of 625 mg/kg/day. It also gave an NOAEL ([11]; systemic / pathology microscopic / kidney / regeneration + systemic / in life observation / body weight / body weight + systemic / in life …) of 315 mg/kg/day.
